Target: T1, PD-1/PD-L1 (Homo sapiens, UniProt Q9NZQ7)
T1 construct: made in house; host or cells: HEK293T
Test: PD-1/PD-L1 Homogenous Time-Resolved Fluorescence (HTRF) binding assay
Conditions: PD-L1-His 10 nM, PD-1-Ig 20 nM; value given as range class; read-out: Range or IC50
Procedure, shortened: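 Binding measured in dPBS with 0.1% BSA and 0.05% Tween-20, detected by HTRF with europium cryptate anti-Ig (1 nM final) and APC anti-His (20 nM final) added over the binding reaction. Counter-assays used human PD-1-Ig/PD-L2-His (20 and 5 nM) and CD80-His/PD-L1-Ig (100 and 10 nM).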

T1 sequence (Q9NZQ7 with tags, fused parts or gaps): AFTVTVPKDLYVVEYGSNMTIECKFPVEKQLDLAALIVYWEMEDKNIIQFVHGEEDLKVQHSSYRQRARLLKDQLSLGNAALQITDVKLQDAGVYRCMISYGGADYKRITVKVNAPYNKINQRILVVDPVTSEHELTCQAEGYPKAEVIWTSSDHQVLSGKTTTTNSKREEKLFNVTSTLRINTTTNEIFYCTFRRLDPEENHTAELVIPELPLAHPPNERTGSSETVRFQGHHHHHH

IC50 [nM] | SMILES
0.21 to 10 | Cc1c(COc2cc(OCc3cncc(C#N)c3)c(C(=O)NC(C)(CO)CO)cc2Cl)cccc1-c1cccc(OCCCN2CC[C@@H](O)C2)c1C [Example 2378, (R)-5-chloro-2-((5-cyanopyridin-3-yl)methoxy)-N-(1,3-dihydroxy-2-methylpropan-2-yl)-4-((3′-(3-(3-hydroxypyrrolidin-1-yl)propoxy)-2,2′-dimethyl-[1,1′-biphenyl]-3-yl)methoxy)benzamide]
0.21 to 10 | Cc1c(COc2cc(OCc3cncc(C#N)c3)c(CN(CC3CC3)C(C)(CO)CO)cc2Cl)cccc1-c1cccc(OCCCN2CC[C@@H](O)C2)c1Cl [Example 2114, (R)-5-((4-chloro-5-((2′-chloro-3′-(3-(3-hydroxypyrrolidin-1-yl)propoxy)-2-methyl-[1,1′-biphenyl]-3-yl)methoxy)-2-(((cyclopropylmethyl)(1,3-dihydroxy-2-methylpropan-2-yl)amino)methyl)phenoxy)methyl)nicotinonitrile]
0.21 to 10 | Cc1c(COc2cc(OCc3cncc(C#N)c3)c(CN3CCCC[C@H]3C(=O)O)cc2Cl)cccc1-c1cccc(OCCCN2CC[C@H](CO)[C@H](O)C2)c1C [Example 2203, (2S)-1-(5-chloro-2-((5-cyanopyridin-3-yl)methoxy)-4-((3′-(3-((3 S,4R)-3-hydroxy-4-(hydroxymethyl)piperidin-1-yl)propoxy)-2,2′-dimethylbiphenyl-3-yl)methoxy)benzyl)piperidine-2-carboxylic Acid]
0.21 to 10 | Cc1c(COc2cc(OCc3cncc(C#N)c3)c(CN[C@](C)(CO)C(=O)O)cc2Cl)cccc1-c1cccc(OCC2(CN3CC[C@@H](O)C3)CC2)c1C [Example 2341, (R)-2-((5-chloro-2-((5-cyanopyridin-3-yl)methoxy)-4-((3′-((1-(((R)-3-hydroxypyrrolidin-1-yl)methyl)cyclopropyl)methoxy)-2,2′-dimethyl-[1,1′-biphenyl]-3-yl)methoxy)benzyl)amino)-3-hydroxy-2-methylpropanoic Acid]
100 to 2000 | CCNC(=O)c1cccc(-c2cccc(COc3cc(OCc4cc(F)cc(F)c4)c(CN4CCCC[C@H]4C(=O)O)cc3Cl)c2C)c1C [Example 4017, (S)-1-(5-chloro-2-((3,5-difluorobenzyl)oxy)-4-((3′-(ethylcarbamoyl)-2,2′-dimethyl-[1,1′-biphenyl]-3-yl)methoxy)benzyl)piperidine-2-carboxylic Acid]
0.21 to 10 | Cc1c(COc2cc(OCc3cncc(C#N)c3)c(CN(CCO)[C@@](C)(CO)C(=O)O)cc2Cl)cccc1-c1cccc(OCCCN2CC[C@@H](O)C2)c1C [Example 4111, (S)-2-((5-chloro-2-((5-cyanopyridin-3-yl)methoxy)-4-((3′-(3-((R)-3-hydroxypyrrolidin-1-yl)propoxy)-2,2′-dimethyl-[1,1′-biphenyl]-3-yl)methoxy)benzyl)(2-hydroxyethyl)amino)-3-hydroxy-2-methylpropanoic Acid]
0.21 to 10 | Cc1c(OCCCN2CC[C@@H](O)C2)cccc1-c1c(Cl)ccc(COc2cc(OCc3cncc(C#N)c3)c(CNC(C)(CO)CO)cc2Cl)c1Cl [Example 2093, 5-((4-chloro-5-((2,6-dichloro-3′-(3-((R)-3-hydroxypyrrolidin-1-yl)propoxy)-2′-methyl-[1,1′-biphenyl]-3-yl)methoxy)-2-(((1,3-dihydroxy-2-methylpropan-2-yl)amino)methyl)phenoxy)methyl)nicotinonitrile]
2010 to 10000 | CCNC(=O)c1cccc(-c2cccc(COc3cc(OCc4cc(F)cc(F)c4)c(CN4CCOC[C@H]4C(=O)O)cc3Cl)c2C)c1C [Example 4020, (S)-4-(5-chloro-2-((3,5-difluorobenzyl)oxy)-4-((3′-(ethylcarbamoyl)-2,2′-dimethyl-[1,1′-biphenyl]-3-yl)methoxy)benzyl)morpholine-3-carboxylic Acid]
0.21 to 10 | Cc1c(COc2cc(OCc3cncc(C#N)c3)c(CNC(CO)CO)cc2Cl)cccc1-c1cccc(NC(=O)CNC2CC2)c1C [Example 2347, N-(3′-((2-chloro-5-((5-cyanopyridin-3-yl)methoxy)-4-(((1,3-dihydroxypropan-2-yl)amino)methyl)phenoxy)methyl)-2,2′-dimethyl-[1,1′-biphenyl]-3-yl)-2-(cyclopropylamino)acetamide]
10 to 100 | Cc1c(COc2cc(OCc3cncc(C#N)c3)c(CNC(CO)(CO)CO)cc2Cl)cccc1-c1cccc(C(=O)N2CCOCC2)c1C [Example 4058, 5-((4-chloro-2-(((1,3-dihydroxy-2-(hydroxymethyl)propan-2-yl)amino)methyl)-5-((2,2′-dimethyl-3′-(morpholine-4-carbonyl)-[1,1′-biphenyl]-3-yl)methoxy)phenoxy)methyl)nicotinonitrile]
0.21 to 10 | Cc1c(COc2cc(OCc3cncc(S(C)(=O)=O)c3)c(CNC(C)(CO)C(=O)O)cc2Cl)cccc1-c1cccc(OCCCN2CCC(CO)(C(=O)O)C2)c1Cl (single isomer, unassigned) [Example 1063]
0.21 to 10 | Cc1c(COc2cc(OCc3cncc(C#N)c3)c(C=O)cc2Cl)cccc1-c1cccc(OCCCN2CCC(O)(C(=O)O)CC2)c1C [Example 2385, 1-(3-((3′-((2-chloro-5-((5-cyanopyridin-3-yl)methoxy)-4-formylphenoxy)methyl)-2,2′-dimethyl-[1,1′-biphenyl]-3-yl)oxy)propyl)-4-hydroxypiperidine-4-carboxylic Acid]
0.21 to 10 | Cc1c(COc2cc(OCc3cncc(C#N)c3)c(CN3CCCC[C@H]3C(=O)O)cc2Cl)cccc1-c1cccc(OCCCN2CCCC(C(N)=O)C2)c1C (stereo partly drawn) [Example 2207, (2S)-1-(4-((3′-(3-(3-carbamoylpiperidin-1-yl)propoxy)-2,2′-dimethylbiphenyl-3-yl)methoxy)-5-chloro-2-((5-cyanopyridin-3-yl)methoxy)benzyl)piperidine-2-carboxylic Acid]
100 to 2000 | CCN(CC)C(=O)c1cccc(-c2cccc(COc3cc(OCc4cncc(C#N)c4)c(CN4CCC[C@H]4C(=O)O)cc3Cl)c2C)c1C [Example 4041, (5-chloro-2-((5-cyanopyridin-3-yl)methoxy)-4-((3′-(diethylcarbamoyl)-2,2′-dimethyl-[1,1′-biphenyl]-3-yl)methoxy)benzyl)-L-proline]
0.21 to 10 | C=CC[C@H](NCc1cc(Cl)c(OCc2cccc(-c3cccc(OCCCN4CC[C@@H](O)C4)c3C)c2C)cc1OCc1cncc(C#N)c1)C(=O)O [Example 4155, (S)-2-((5-chloro-2-((5-cyanopyridin-3-yl)methoxy)-4-((3′-(3-((R)-3-hydroxypyrrolidin-1-yl)propoxy)-2,2′-dimethyl-[1,1′-biphenyl]-3-yl)methoxy)benzyl)amino)pent-4-enoic Acid]
0.21 to 10 | Cc1c(COc2cc(OCCCN3CC[C@@H](O)C3)c(CN[C@@H](CO)C(=O)O)cc2Cl)cccc1-c1cccc(OCCCN2CC[C@@H](O)C2)c1C [Example 1530, (5-chloro-2-(3-((R)-3-hydroxypyrrolidin-1-yl)propoxy)-4-((3′-(3-((R)-3-hydroxypyrrolidin-1-yl)propoxy)-2,2′-dimethyl-[1,1′-biphenyl]-3-yl)methoxy)benzyl)-L-serine]
0.21 to 10 | COC(=O)[C@@H]1CCCCN1Cc1cc(Cl)c(OCc2cccc(-c3cccc(OCCCN4CC[C@@H](O)C4)c3C)c2C)cc1OCc1cncc(C#N)c1 [Example 3067, methyl (S)-1-(5-chloro-2-((5-cyanopyridin-3-yl)methoxy)-4-((3′-(3-((R)-3-hydroxypyrrolidin-1-yl)propoxy)-2,2′-dimethyl-[1,1′-biphenyl]-3-yl)methoxy)benzyl)piperidine-2-carboxylate]
0.21 to 10 | Cc1c(COc2cc(OCc3cncc(C#N)c3)c(CN[C@](C)(CO)C(=O)O)cc2Cl)cccc1-c1cccc(OCCCN2CC[C@@H](O)C2)c1Cl [Example 1121, (R)-2-((5-Chloro-4-((2′-chloro-3′-(3-((R)-3-hydroxypyrrolidin-1-yl)propoxy)-2-methyl-[1,1′-biphenyl]-3-yl)methoxy)-2-((5-cyanopyridin-3-yl)methoxy)benzyl)amino)-3-hydroxy-2-methylpropanoic Acid]
0.21 to 10 | Cc1c(COc2cc(OCc3cncc(C#N)c3)c(CN3CCCC[C@H]3C(=O)O)cc2Cl)cccc1-c1cccc(OCCCN(C)CCc2ccccc2)c1C [Example 2218, (2S)-1-(5-chloro-2-((5-cyanopyridin-3-yl)methoxy)-4-((2,2′-dimethyl-3′-(3-(methyl(phenethyl)amino)propoxy)biphenyl-3-yl)methoxy)benzyl)piperidine-2-carboxylic Acid]
0.21 to 10 | Cc1c(COc2cc(OCc3cncc(C(=N)N4CC[C@@H](O)C4)c3)c(CNC(C)(CO)CO)cc2Cl)cccc1-c1cccc(OCCCN2CC[C@@H](O)C2)c1Cl [Example 2105, 2-((5-chloro-4-((2′-chloro-3′-(3-((R)-3-hydroxypyrrolidin-1-yl)propoxy)-2-methyl-[1,1′-biphenyl]-3-yl)methoxy)-2-((5-(((R)-3-hydroxypyrrolidin-1-yl)(imino)methyl)pyridin-3-yl)methoxy)benzyl)amino)-2-methylpropane-1,3-diol]
0.21 to 10 | Cc1c(COc2cc(OCc3cncc(S(C)(=O)=O)c3)c(CN3CCCC[C@H]3C(=O)O)cc2Cl)cccc1-c1cccc(OCCCN2CC[C@@H](O)C2)c1 [Example 1022, (S)-1-(5-chloro-4-((3′-(3-((R)-3-hydroxypyrrolidin-1-yl)propoxy)-2-methyl-[1,1′-biphenyl]-3-yl)methoxy)-2-((5-(methylsulfonyl)pyridin-3-yl)methoxy)benzyl)piperidine-2-carboxylic Acid]
0.21 to 10 | Cc1c(COc2cc(OCc3cncc(C#N)c3)c(CN[C@@](C)(CO)C(=O)O)cc2Cl)cccc1-c1cccc(OCCCN2CCOCC2)c1C [Example 2273, (S)-2-((5-chloro-2-((5-cyanopyridin-3-yl)methoxy)-4-((2,2′-dimethyl-3′-(3-morpholinopropoxy)-[1,1′-biphenyl]-3-yl)methoxy)benzyl)amino)-3-hydroxy-2-methylpropanoic Acid]

Reference: patent US10745382B2 (BRISTOL-MYERS SQUIBB COMPANY, priority 2015, dated 2020)
